Measurements reported in patent publication US9974721B2, “Cosmetic composition for lightening skin and hair” (Symrise AG, priority 2013, dated 2018).
“And” between values parts separate entries of the source, which are not always exact repeats. Equal entries are not always repeated.

Columns and labels:
[1] = test system: B16V mouse melanoma cells; experiment: Depigmentation effect on melanoma cell cultures (inhibition of pigmentation); assay type: cell-based; settings: for IC50: Mus musculus, B16V cells, 0.3 mM tyrosine + 10 nM α-MSH, 96 h, absorption at 400 nm
Method: (§1) B16V mouse melanoma cells are disseminated in a 96-well micro-titre plate in a concentration of 7.5×10^3 cells/well. After cultivation for 24 h at 37° C. and 5% CO2 in RPMI medium, enriched with 10% foetal calf serum, various concentrations of the test substances and 0.3 mM tyrosine and 10 nM α-MSH (α-melanocyte stimulating hormone) are added and incubated for a further 96 h. The maximum concentration of the test substances used corresponds to 0.1 times the value of the IC20 value of the cytotoxicity assay. Only tyrosine and α-MSH are added to the controls. After incubation, sodium hydroxide solution (final concentrations: 1 M) is added to the culture medium and the absorption (A) is measured after 3 h at 400 nm.
(§2) The inhibition of pigmentation in the presence of the test compounds was calculated using the following equation: Inhibition of pigmentation (%)=100−[(Atest compound/Acontrol)×100] wherein Atest compound=absorption of the wells with test substance and with cells Acontrol=absorption of the wells without test substance, but with cells
From the inhibition of pigmentation (%) in a series of dilutions of test compounds, the IC50 for each test compound is calculated. This is the concentration of a test compound at which pigmentation is inhibited by 50%.

Human skin = experiment: Depigmentation effect on ex vivo skin (melanin granules, Fontana-Masson, image analysis); assay type: cell-based; settings: 0.1 wt.% in O/W emulsion, topical, 6 days
Method: Human skin, originating from plastic surgery, was cut into 4×4×3 mm pieces (length×width×height) and placed in culture at the air-liquid interface on a sterilized cotton pad soaked with 5 ml of customized DMEM (Dulbecco's Modified Eagle Medium). Assays were started 24 h after sample acclimatization at 37° C., 5% CO2. O/W emulsions (as described in more detail below) without (=control) and with the test compounds, respectively, were applied topically and incubated for 6 days. Histological sections were prepared and melanin granules stained by Fontana-Masson technique. The granules were quantified by image analysis. The results are compiled in Tables 3.1 and 3.2.
Phases A and B are heated to 70° C. separately. Pemulen TR1 as well as Ultrez-21 are dispersed in phase B when heated to 70° C. Phase B/C is added to phase A by mixing with an Ultra Turrax, followed by emulsifying. Phase D is slowly added to phase A/B/C using a paddle mixer and a pH 5.5-6 is adjusted. The formulation is cooled down while mixing with a paddle mixer. Phase E is added to the mixture of phase A-D.

[2] = test system: B16V mouse melanoma cells; experiment: Synergistic in vitro melanin inhibition (procedure of Example 1, Kull synergy index); assay type: cell-based; settings: experiments 1 and 2, mixture 75% Larixol / 25% SymWhite 377
Method: as §1, §2
From the inhibition of pigmentation (%) in a series of dilutions of test compounds, the IC50 for each test compound is calculated. […]
The Synergy Index (SI)^1 is calculated according to Kull's equation as follows: ^1 The calculation of the synergy index (SI-value) was carried out on the basis of following literature: D. C. […]

[3] = target: plasminogen activator inhibitor-1 (PAI-1) (Homo sapiens, UniProt P05121); settings: US 2010 0137194; cited from earlier work
Chain of plasminogen activator inhibitor-1 (PAI-1) (P05121 24-402, species assumed): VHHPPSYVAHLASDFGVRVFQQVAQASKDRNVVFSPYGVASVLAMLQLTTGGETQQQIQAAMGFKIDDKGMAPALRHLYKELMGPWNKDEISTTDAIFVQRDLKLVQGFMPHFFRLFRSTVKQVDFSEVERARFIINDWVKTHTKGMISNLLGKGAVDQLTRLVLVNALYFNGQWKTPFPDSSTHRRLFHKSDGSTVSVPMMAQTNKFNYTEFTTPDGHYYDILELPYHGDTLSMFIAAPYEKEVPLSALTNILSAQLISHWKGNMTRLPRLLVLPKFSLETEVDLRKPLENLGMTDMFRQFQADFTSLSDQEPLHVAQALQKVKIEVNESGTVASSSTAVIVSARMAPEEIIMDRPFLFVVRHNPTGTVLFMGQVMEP

[4] = Incorporation into commonly used cosmetic formulations / crystallisation; assay type: physicochemical; settings: for incorporation into commonly used cosmetic formulations: own experiments
Source text: The analogues compound manool was already described as skin lightening active (JP 2006 137705 (Pola) and JP 06072855 (Pola)).

[5] = target: T1, transient receptor potential cation channel-6 (TRPC6) (Homo sapiens, UniProt Q9Y210); settings: WO 2013 021038 A1; cited from earlier work
T1 sequence (Q9Y210 1-931): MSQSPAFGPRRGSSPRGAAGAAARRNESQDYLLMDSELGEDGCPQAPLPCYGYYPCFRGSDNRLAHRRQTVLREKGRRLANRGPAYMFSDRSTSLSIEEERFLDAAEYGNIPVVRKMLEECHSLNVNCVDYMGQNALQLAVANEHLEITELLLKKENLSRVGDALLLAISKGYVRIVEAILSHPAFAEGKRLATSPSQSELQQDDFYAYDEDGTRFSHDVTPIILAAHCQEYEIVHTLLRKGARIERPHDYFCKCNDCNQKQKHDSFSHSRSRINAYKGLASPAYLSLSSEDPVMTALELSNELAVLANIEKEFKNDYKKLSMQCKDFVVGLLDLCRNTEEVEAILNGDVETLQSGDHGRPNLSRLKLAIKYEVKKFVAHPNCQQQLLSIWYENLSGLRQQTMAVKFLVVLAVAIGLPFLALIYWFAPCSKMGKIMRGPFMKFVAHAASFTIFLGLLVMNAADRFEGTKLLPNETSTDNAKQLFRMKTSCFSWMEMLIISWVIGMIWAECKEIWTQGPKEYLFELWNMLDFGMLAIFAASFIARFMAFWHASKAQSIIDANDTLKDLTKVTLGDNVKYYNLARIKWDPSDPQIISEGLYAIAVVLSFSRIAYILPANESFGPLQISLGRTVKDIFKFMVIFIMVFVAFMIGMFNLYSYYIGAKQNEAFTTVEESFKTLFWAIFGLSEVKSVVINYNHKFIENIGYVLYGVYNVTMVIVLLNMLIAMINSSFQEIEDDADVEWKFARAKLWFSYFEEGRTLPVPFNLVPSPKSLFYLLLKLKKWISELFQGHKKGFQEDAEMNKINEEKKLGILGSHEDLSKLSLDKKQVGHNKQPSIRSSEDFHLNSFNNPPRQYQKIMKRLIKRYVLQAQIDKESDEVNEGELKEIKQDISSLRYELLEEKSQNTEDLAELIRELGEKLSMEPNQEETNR

Row | SMILES | IC50 [1] | Melanin inhibition IC50 [2] | incorporation into commonly used cosmetic formulations [4] | TRPC6 antagonism [5] | other results
1 | CC(c1ccccc1)c1ccc(O)cc1O (stereo not shown) [SymWhite ® 377, 4-(1-phenylethyl)1,3-dihydroxybenzene] | – | 0.000021% and 0.000034% | – | – | –
2 | C=CC(C)(O)CCC1C(=C)CC(OC(C)=O)C2C(C)(C)CCCC12C (stereo not shown) [larixyl acetate] | – | – | – | TRPC6 antagonists | –
3 | C=CC(C)(CCC1C(=C)CC(OC(C)=O)C2C(C)(C)CCCC12C)OC(C)=O (stereo not shown) [larixyl diacetate] | – | – | – | TRPC6 antagonists | –
4 | C=C[C@](C)(O)CC[C@H]1C(=C)CC[C@H]2C(C)(C)CCC[C@]12C [manool] | – | – | difficult to incorporate | – | crystallisation in formulation ([4]; formulation with manool, after a few days): crystallisation of manool after a few days

Further lines, with some results ahead:

Row | IC50 [1] | Melanin inhibition IC50 [2] | SMILES | incorporation into commonly used cosmetic formulations [4] | TRPC6 antagonism [5] | other results
5 | 3.9 µM | 0.00011% | C=C[C@@](C)(O)CC[C@H]1C(=C)C[C@H](O)[C@H]2C(C)(C)CCC[C@]12C [Larixol, (1S,4S,4aR,8aS)-4-[(3S)-3-Hydroxy-3-methylpent-4-enyl]-4a,8,8-trimethyl-3-methylenedecahydronaphthalen-1-ol] | can easily be incorporated | TRPC6 antagonists | inhibitory activity towards melanin formation in melanocytes ([1]; statement in words): strong inhibitory activity; Melanin score vs. Control (Human skin): −41%; PAI-1 inhibition (screening) [3]: PAI-1 inhibitor
6 | 67 µM | – | OC[C@H]1O[C@@H](Oc2ccc(O)cc2)[C@H](O)[C@@H](O)[C@@H]1O [beta-Arbutin, reference compound] | – | – | –
